Results on five molecules are retold here after PMC3506129 (Journal of Medicinal Chemistry, 2012).

The test system of series [1] is panel of 140 representative kinases. Briefly: Radiometric kinase panel summary, 1 μM. In kind it is biochemical, human. Conditions: of 140 kinases.
In series [2] the test system is AMPK. Briefly: radiometric kinase profiling. It is filed as biochemical. Conditions: 1 μM.
In series [3] the test system is CHK1 S296 autophosphorylation in SW620 human colon cancer xenografts. Briefly: Gemcitabine-induced CHK1 phosphorylation in SW620 xenografts. It is filed as in vivo, mouse. Conditions: single po dose at MTD (20: 160, 26: 300 mg/kg); 12 h after gemcitabine.
The test system of series [4] is SW620 human colon cancer xenograft. Conditions: SW620, q4d × 3, gemcitabine 100 mg/kg iv + 26 75 mg/kg po; cited from earlier work.
In series [5] the test system is HT29 human colon cancer xenograft. Conditions: cited from earlier work; for tumor growth delay (days), 26: HT29, q7d × 3, 26 75 mg/kg po alone.
In series [6] the test system is 121 kinases. Conditions: against 89 out of the 121 enzymes, screen at 10 μM.
Series [7] in a line: Plasma and tumor drug levels in SW620 xenograft-bearing mice. Conditions: po dose at MTD. In kind it is in vivo, mouse.
The test system of series [8] is pS296 CHK1 in HT29 colon tumor xenografts. Conditions: single doses 100–300 mg/kg po; cited from earlier work.
The test system of series [9] is Calu6 human non-small cell lung cancer xenograft. Conditions: Calu6, q7d × 3, gemcitabine 100 mg/kg iv + 26 75 mg/kg po; cited from earlier work.
Series [10] in a line: CaCo-2 permeability. Conditions: human. In kind it is in vitro ADME. Background: Passage across Caco-2 layers is used to estimate intestinal permeability.
For series [11], the target named is CDK1 (Homo sapiens, UniProt P06493). Conditions: data not shown.
CDK1, sequence (P06493 whole entry, looked up): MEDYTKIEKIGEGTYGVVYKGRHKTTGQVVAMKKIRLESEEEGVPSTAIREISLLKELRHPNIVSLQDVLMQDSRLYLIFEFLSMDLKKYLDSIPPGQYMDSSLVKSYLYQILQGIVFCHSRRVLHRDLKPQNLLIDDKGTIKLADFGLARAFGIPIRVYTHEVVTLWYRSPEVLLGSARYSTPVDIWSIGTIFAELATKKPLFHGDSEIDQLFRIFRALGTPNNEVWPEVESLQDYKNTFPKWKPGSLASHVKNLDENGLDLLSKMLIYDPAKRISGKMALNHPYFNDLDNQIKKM
Series [12] has as its target CHK2 (Homo sapiens, UniProt O96017). Briefly: CHK2 DELFIA kinase assay. It is filed as biochemical. Conditions: data not shown.
Where [13] appears, read: 10 mg/kg iv, 6 h, 9 normalized from 5 mg/kg, 24 from 1 mg/kg, 20 from full PK.

Read-outs that look alike come from different tables or passages of the source. Marks after values point to notes of the source that are not given here.

CHK2, sequence (O96017 whole entry, species assumed): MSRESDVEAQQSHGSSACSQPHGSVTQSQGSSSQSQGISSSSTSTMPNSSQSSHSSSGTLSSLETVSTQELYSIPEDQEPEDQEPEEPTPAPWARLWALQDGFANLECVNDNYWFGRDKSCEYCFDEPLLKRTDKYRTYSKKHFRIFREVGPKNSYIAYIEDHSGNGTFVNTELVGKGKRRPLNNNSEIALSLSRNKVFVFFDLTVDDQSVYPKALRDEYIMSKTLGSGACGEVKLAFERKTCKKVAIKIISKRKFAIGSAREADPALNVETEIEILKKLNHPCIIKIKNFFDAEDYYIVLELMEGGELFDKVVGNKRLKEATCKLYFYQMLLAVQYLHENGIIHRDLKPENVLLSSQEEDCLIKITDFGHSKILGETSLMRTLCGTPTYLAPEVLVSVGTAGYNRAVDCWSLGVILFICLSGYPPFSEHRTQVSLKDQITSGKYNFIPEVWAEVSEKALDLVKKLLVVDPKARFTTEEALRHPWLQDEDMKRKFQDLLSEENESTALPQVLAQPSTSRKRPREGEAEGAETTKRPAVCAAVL

As to `COc1cc(Nc2cnc(C#N)c(O[C@H](C)CN(C)C)n2)ncc1-c1cnn(C)c1` [Compound 26, (R)-3-((1-(Dimethylamino)propan-2-yl)oxy)-5-((4-methoxy-5-(1-methyl-1H-pyrazol-4-yl)pyridin-2-yl)amino)pyrazine-2-carbonitrile], the “number of enzymes strongly inhibited (>80%)” value in series [1] is recorded as 7. Besides, in series [2], the “inhibition (strongly inhibited)” value is over 80%. Also, the “inhibition of CHK1 S296 autophosphorylation, 12 h” value in series [3] is “robust inhibition”. For the same molecule, the “enhancement in plasma levels at the 1 h time point relative to 20” value (10 mg/kg, 1 h) worked out at 2 fold. Further, the “tumor growth delay (days), combination” value is listed as 6.0 (±2.4) days in series [4]; 11.4 (±3.3) days in series [5] (HT29, q7d × 3, gemcitabine 100 mg/kg iv + 26 75 mg/kg po at 24 and 48 h); 13.5 (±2.4) days in series [5] (HT29, q7d × 3, irinotecan 12.5 mg/kg i.p. + 26 75 mg/kg po); 15.9 (±2.5) days in series [9]. In addition, the figures for the “tumor growth delay (days), 26” value in series [5] (gemcitabine experiment) and in series [5] (irinotecan experiment) were “–1.8 (±2.1) days” and 0.30 (±1.4) days, respectively. The “selectivity for CHK1” value in series [6] was over 1000 fold. For the same molecule, the “fall in drug concentration between 6 and 12 h” value in [7] is given as 2–3 fold. Also, the “duration of inhibition of gemcitabine-induced pS296 CHK1” value in [8] was “up to 24 h”.
With `CNc1cc(Nc2cnc(C#N)c(O[C@@H]3CCN(C)C3)n2)ncc1-c1cnn(C)c1` [Compound 24], the “mouse plasma level iv, 6 h” value under setting [13] is <20 ^i, ^j nM.
Broadly, the efflux ratio is the permeability from basolateral to apical divided by that in the opposite direction, in the common usage. As to `CNc1cc(Nc2cnc(C#N)c(O[C@H](C)CN(C)C)n2)ncc1C(F)(F)F` [Compound 15], in series [10], the efflux ratio is over 6.
As to `CNc1cc(Nc2cnc(C#N)c(O[C@H](C)CN(C)C)n2)ncc1-c1cnn(C)c1` [Compound 20, (R)-3-((1-(Dimethylamino)propan-2-yl)oxy)-5-((5-(1-methyl-1H-pyrazol-4-yl)-4-(methylamino)pyridin-2-yl)amino)pyrazine-2-carbonitrile], in series [3], the “inhibition of CHK1 S296 autophosphorylation, 12 h” value was “less powerful effect”. The “mouse plasma level iv, 1 h” value (10 mg/kg iv, 1 h, 9 normalized from 5 mg/kg, 24 from 1 mg/kg, 20 from full PK) is 910 (±23) ^h nM. Further, the “mouse plasma level iv, 6 h” value under setting [13] is 45 (±10) ^h nM. For the same molecule, where the note is “10 mg/kg po, 1 h”, the “mouse plasma level po, 1 h” value was 555 (±82) ^h nM. Moreover, the “mouse plasma level po, 6 h” value (10 mg/kg po, 6 h) is 57 (±7) ^h nM. Further, in series [7], the “fall in drug concentration between 6 and 12 h” value was “ca. 20 fold”.
In the case of `COC(=O)c1cnc(Nc2cnc(C#N)c(O[C@@H]3CCNC3)n2)cc1N(C)C` [Compound 10], the “selectivity for CHK1 inhibition over CDK1” value in series [11] was “greater than 100 fold”. Besides, the “selectivity for CHK1 inhibition over CHK2” value in series [12] is recorded as “greater than 100 fold”.
